Test results published in patent publication US11066709B2, “Methods for diagnosing and treating cancer by means of the expression status and mutational status of NRF2 and downstream target genes of said gene” (Genentech, Inc., priority 2016, dated 2021).
Residues, ends and D or L forms follow the SMILES beside them. *: point of attachment. Cbz = O=C(OCc1ccccc1)*

What was measured:
Assay type in all cases: cell-based
[1] = system: A549 cells; assay: Colony growth of A549 cells in soft agar; settings: Homo sapiens, read-out: IC50 for inhibiting colony growth of A549 cells in soft agar
Experimental: (§1) FIG. 62 is a series of photographs showing colony formation of KEAP1 mutant cell lines and KEAP1 wild-type cell lines grown in soft agar (anchorage independent conditions) in the presence of IGF1 R inhibitors linsitinib and NVP-AEW541, and in the presence or absence of glutathione.
(§2) Expression of IGF1 R was greater in KEAP1 mutant NSCLC cells relative to KEAP1 wild-type NSCLC cell lines. To test the effect of IGF1 R inhibition on KEAP1 mutant and KEAP1 wild-type cells, cell lines were treated with linsitinib, a potent and selective IGF1 R small molecule inhibitor. […] However, this compound was very potent at inhibiting colony growth of A549 cells in soft agar, having an IC50 of about 20 nM.

[2] = system: KEAP1 mutant cell lines and KEAP1 wild-type cell lines; assay: Growth in soft agar (anchorage independent conditions) of a panel of NSCLC cell lines
Experimental: as §1, §2

[3] = system: three wild-type and three mutant KEAP1 NSCLC cell lines; assay: Proliferation of wild-type and mutant KEAP1 NSCLC cell lines
[4] = system: reactive oxygen species (ROS); assay: ROS levels measured by H2DCF; settings: exogenous glutathione, dichlorofluorescein staining
Source text: FIG. 49 is bar graph showing reactive oxygen species (ROS) levels under indicated conditions as measured using 2′,7′-dichlorodihydrofluorescein diacetate (H2DCF). Error bars represent standard deviation from triplicate wells.
FIG. 53 is a histogram showing increasing ROS levels in response to shNRF2 and/or erastin, as measured by H2DCF.

[5] = system: KEAP1 mutant and KEAP1 wild-type cell lines; assay: Colony formation in soft agar with or without NRF2 knockdown
Experimental: Representative areas of the plate were photographed. FIG. 44 is a series of bar graphs showing the quantified colony formation for each cell type and treatment group shown in FIG. 43. Error bars represent standard deviation from biological triplicate wells. FIG. 48 is a series of photographs showing A549 cells expressing NRF2sh10 shRNA plated into regular tissue culture dishes (top) or soft agar (bottom). Cells were treated with either vehicle or 500 ng/ml doxycycline, in the presence or absence of 2 mM N-acetyl cysteine (NAC).

[6] = system: KEAP1 mutant cell lines; assay: Viability of KEAP1 wild-type versus KEAP1 mutant cell lines
Source text: FIG. 56A is a graph showing the IC50 of the glutaminase inhibitor BPTES on KEAP1 wild-type cell lines versus KEAP1 mutant cell lines.
FIG. 56B is a graph showing the viability of KEAP1 wild-type cell lines versus KEAP1 mutant cell lines in response to the glutaminase inhibitor BPTES.
FIG. 57A is a graph showing the IC50 of the […] buthionine sylphoximine (BSO) on KEAP1 wild-type cell lines versus KEAP1 mutant cell lines.
FIG. 57B is a graph showing the viability of KEAP1 wild-type cell lines versus KEAP1 mutant cell lines in response to BSO.

[7] = system: full-length NRF2; assay: Effect of KEAP1 on NRF2 expression in transfected 293 cells (Western blot); settings: 293 cells transfected with NRF2 and KEAP1 plasmids
Experimental: FIG. 23 is a set of immunoblots showing the effect of NRF2 exon 2 and exon 2+3 deletions on KEAP1 interaction. 293 cells were transfected with plasmids expressing FLAG-NRF2, Δe2 FLAG-NRF2, Δe2+3 FLAG-NRF2 or HA-KEAP1. 48 hours after transfection, cells were lysed, and either lysates (top gel) or anti-FLAG immunoprecipitations were analyzed by Western blotting using the indicated antibodies.
Plasmid DNAs were transfected into cells using Lipofectamine 2000 (ThermoFisher) and OptiMEM (Gibco) as recommended by manufacturer protocol. Lysates were prepared 2-3 days post transfection. Expression plasmids used were pRK5.NRF2, pRK5.NRF2δe2, pRK5.NRF2δe2,3, pRK5.NRF2.FLAG and pRK5.KEAP1.HA.

C[C@]1(O)C[C@@H](c2nc(-c3ccc4ccc(-c5ccccc5)nc4c3)c3c(N)nccn32)C1 [linsitinib]
IC50 [1]: ~20 nM
selectivity of growth inhibition for KEAP1 mutant cell lines [2]: selective growth inhibition in soft agar of this compound in KEAP1 mutant cell lines
effect on proliferation [3]: little effect on proliferation

N[C@@H](CCC(=O)N[C@@H](CS)C(=O)NCC(=O)O)C(=O)O [reduced glutathione, glutathione]
ROS levels [4]: reduce reactive oxygen (ROS) levels
ability to form colonies in soft agar ([5]; all tested cell lines, 1 mM reduced glutathione): generally increased the ability of all tested cell lines to form colonies in soft agar
rescue of the consequences of NRF2 knockdown ([5]; soft agar, dox-induced NRF2 shRNA): unable to rescue the consequences of NRF2 knockdown

CCCCS(=N)(=O)CCC(N)C(=O)O (stereo not drawn) [BSO, buthionine sylphoximine]
preferential toxicity for KEAP1 mutant cell lines [6]: did not display preferential toxicity

CC(C)C[C@@H](C=O)NC(=O)[C@H](CC(C)C)NC(=O)[C@H](CC(C)C)NC(=O)OCc1ccccc1 [MG132] (Cbz-Leu-Leu-Leu-aldehyde)
inhibitory effect of KEAP1 on full-length NRF2 expression [7]: mostly abolished

O=C(Cc1ccccc1)Nc1nnc(CCSCCc2nnc(NC(=O)Cc3ccccc3)s2)s1 [BPTES]
preferential toxicity for KEAP1 mutant cell lines [6]: did not display preferential toxicity
